Results from ChEMBL document CHEMBL1146350, “Synthesis of some new bioactive 3-amino-2-mercapto-5,6,7,8-tetrahydro[1]benzothieno[2,3-d]pyrimidin-4(3H)-one derivatives” (2007).
≈ marks a conversion by molar mass, not a printed value. Calls of active or inactive are those of the source. The rule behind the calls is not given here.

Experiments:
Rattus norvegicus [1] = test: Antiinflammatory activity in Wister Albino rat assessed as inhibition of paw edema at 1.5 mg/kg, po after 3hrs; type: functional
Mus musculus [2] = test: Antianxiety study in Swiss Albino mouse assessed as time spent in open arm at 50 mg/kg by elevated plus maze model; type: functional
Pseudomonas aeruginosa = test: Antibacterial activity against Pseudomonas aeruginosa ATCC 27853 by disc diffusion method; type: functional; conditions: for MIC: Pseudomonas aeruginosa, ATCC 27853
Trichophyton benhamiae = test: Antifungal activity against Trichophyton mentagrophytes by serial plate dilution method; type: functional, Arthroderma benhamiae; conditions: for MIC: Trichophyton benhamiae
Klebsiella pneumoniae = test: Antibacterial activity against Klebsiella pneumoniae by disc diffusion method; type: functional; conditions: for MIC: Klebsiella pneumoniae
Escherichia coli = test: Antibacterial activity against Escherichia coli ATCC 25922 by disc diffusion method; type: functional; conditions: for MIC: Escherichia coli, ATCC 25922
Mus musculus [3] = species: Mus musculus; test: Effect on learning and memory in Swiss Albino mouse assessed as latent period on first day; type: functional
Talaromyces marneffei = test: Antifungal activity against Penicillium marneffei by serial plate dilution method; type: functional; conditions: for MIC: Talaromyces marneffei
Mus musculus [4] = test: Antianxiety study in Swiss Albino mouse assessed as time spent in close arm at 50 mg/kg by elevated plus maze model; type: functional
Mus musculus [5] = test: Antianxiety study in Swiss Albino mouse assessed as ratio of number of entreis in open arm to total entries at 50 mg/kg by elevated plus maze test; type: functional
Mus musculus [6] = test: Anticonvulsant activity in Swiss Albino mouse assessed as duration of seizure at 50 mg/kg, po by PTZ induced seizure test; type: functional
Staphylococcus aureus = test: Antibacterial activity against Staphylococcus aureus ATCC 25923 by disc diffusion method; type: functional; conditions: for MIC: Staphylococcus aureus, ATCC 25923, read-out: MIC
Mus musculus [7] = test: Anticonvulsant activity in Swiss Albino mouse assessed as duration of seizure at 2 mg/kg, po by PTZ induced seizure test; type: functional
Aspergillus fumigatus = test: Antifungal activity against Aspergillus fumigatus NCIM 902 by serial plate dilution method; type: functional; conditions: for MIC: Aspergillus fumigatus, NCIM 902
Rattus norvegicus [8] = test: Antiinflammatory activity in Wister Albino rat assessed as inhibition of paw edema at 50 mg/kg, po after 3hrs; type: functional
Mus musculus [9] = test: Anticonvulsant activity in Swiss Albino mouse assessed as mortality at 50 mg/kg, po by PTZ induced seizure test; type: functional, organism-based; design: dose 50 mg/kg
Aspergillus flavus = test: Antifungal activity against Aspergillus flavus NCIM 524 by serial plate dilution method; type: functional; conditions: for MIC: Aspergillus flavus, NCIM 524
Mus musculus [10] = test: Effect on coordination in Swiss Albino mouse at 50 mg/kg by rotarod accelorod test; type: functional
Mus musculus [11] = species: Mus musculus; test: Effect on learning and memory in Swiss Albino mouse assessed as latent period on second day; type: functional
Mus musculus [12] = test: Anticonvulsant activity in Swiss Albino mouse assessed as latency period at 50 mg/kg, po by PTZ induced seizure test; type: functional, organism-based; design: dose 50 mg/kg

SMILES | Activity (Mus musculus [2]) [s] | inhibition zone (IZ) (Pseudomonas aeruginosa) [mm] | MIC (Pseudomonas aeruginosa) [µg/mL] | inhibition zone (IZ) (Trichophyton benhamiae) [mm] | MIC (Trichophyton benhamiae) [µg/mL] | inhibition zone (IZ) (Klebsiella pneumoniae) [mm] | MIC (Klebsiella pneumoniae) [µg/mL] | inhibition zone (IZ) (Escherichia coli) [mm] | MIC (Escherichia coli) [µg/mL] | Activity (Mus musculus [3]) [s] | inhibition zone (IZ) (Talaromyces marneffei) [mm] | MIC (Talaromyces marneffei) [µg/mL] | Activity (Mus musculus [4]) [s] | Activity (Mus musculus [5]) [%] | Activity (Mus musculus [6]) [s] | inhibition zone (IZ) (Staphylococcus aureus) [mm] | MIC (Staphylococcus aureus) [µg/mL] | Activity (Mus musculus [7]) [s] | inhibition zone (IZ) (Aspergillus fumigatus) [mm] | MIC (Aspergillus fumigatus) [µg/mL] | further results
COc1ccc2c(c1)c(CC(=O)O)c(C)n2C(=O)c1ccc(Cl)cc1 [INDOMETHACIN] |  |  |  |  |  |  |  |  |  |  |  |  |  |  |  |  |  |  |  |  | inhibition in vivo at 1.5 mg/kg (Rattus norvegicus [1]): 53.3%
Cc1cc(C)cc(-c2nn3c(=O)c4c5c(sc4nc3s2)CCCC5)c1 | 56 | 18 | 60 (≈ 163 µM) | 9 | 80 (≈ 218 µM) | 20 | 10 (≈ 27.2 µM) | 16 | 60 (≈ 163 µM) | 34 | 18 | 12.5 (≈ 34 µM) | 231 | 7.14 | 0 | 8 | > 100 | 68 | 18 | 12.5 (≈ 34 µM) | inhibition in vivo at 50 mg/kg (Rattus norvegicus [8]): 31.1%; Activity (Mus musculus [9]): Active; inhibition zone (IZ) (Aspergillus flavus): 7 mm; MIC (Aspergillus flavus): > 100 µg/mL; Activity (Mus musculus [10]): 256 s; Activity (Mus musculus [11]): 18 s
CN1C(=O)CN=C(c2ccccc2)c2cc(Cl)ccc21 |  |  |  |  |  |  |  |  |  |  |  |  |  |  |  |  |  |  |  |  | Activity (Mus musculus [12]): Active
Cc1nn2c(=O)c3c4c(sc3nc2s1)CCCC4 | 4 | 22 | 6.25 (≈ 22.5 µM) | 7 | > 100 | 20 | 10 (≈ 36.1 µM) | 18 | 10 (≈ 36.1 µM) | 39 | 16 | 12.5 (≈ 45.1 µM) | 285 | 16.67 | 0 | 20 | 10 (≈ 36.1 µM) | 3600 | 16 | 12.5 (≈ 45.1 µM) | inhibition in vivo at 50 mg/kg (Rattus norvegicus [8]): 34.6%; Activity (Mus musculus [9]): Active; inhibition zone (IZ) (Aspergillus flavus): 12 mm; MIC (Aspergillus flavus): 80 µg/mL (≈ 288 µM); Activity (Mus musculus [10]): 284 s; Activity (Mus musculus [11]): 25 s
